According to the supplement of paper PMC11061612:

Columns and labels:
Paclitaxel = compound: CC(=O)O[C@H]1C(=O)[C@@]2(C)[C@H]([C@H](OC(=O)c3ccccc3)[C@]3(O)C[C@H](OC(=O)[C@H](O)[C@@H](NC(=O)c4ccccc4)c4ccccc4)C(C)=C1C3(C)C)[C@]1(OC(C)=O)CO[C@@H]1C[C@@H]2O [Paclitaxel]; conditions: max 3 µM
Outline: (§1)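 Viability was measured with CellTiter-Glo 2.0 luminescence after 72 hours of dosing at a final DMSO of typically 0.2%, and scaled between blank-well and DMSO-well means. Beforehand, cancer cell lines sat 24 hours at 37°C and 5% CO2 in 1536-well plates in 7.5 μl DMEM/F12 or RPMI with 10% FBS. A non-linear mixed effects model fitted two-parameter logistic curves to the dose responses. The single-agent IC50 comes from these fits.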

SRA737 = compound: N#Cc1cnc(Nc2cc(NC[C@H]3CNCCO3)c(C(F)(F)F)cn2)cn1 [SRA737]; conditions: max 10 µM
Outline: as §1

Gemcitabine = compound: Nc1ccn([C@@H]2O[C@H](CO)[C@@H](O)C2(F)F)c(=O)n1 [Gemcitabine]; conditions: max 0.3 µM
Outline: as §1

Lapatinib = compound: CS(=O)(=O)CCNCc1ccc(-c2ccc3ncnc(Nc4ccc(OCc5cccc(F)c5)c(Cl)c4)c3c2)o1 [Lapatinib]; conditions: max 10 µM
Outline: as §1

SN-38 = compound: CCc1c2c(nc3ccc(O)cc13)-c1cc3c(c(=O)n1C2)COC(=O)[C@]3(O)CC [SN-38]; conditions: max 0.3 µM
Outline: as §1

Etoposide = compound: COc1cc([C@@H]2c3cc4c(cc3[C@@H](O[C@@H]3O[C@@H]5CO[C@@H](C)O[C@H]5[C@H](O)[C@H]3O)[C@H]3COC(=O)[C@H]23)OCO4)cc(OC)c1O [Etoposide]; conditions: max 10 µM
Outline: as §1

AZD8186 = compound: C[C@@H](Nc1cc(F)cc(F)c1)c1cc(C(=O)N(C)C)cc2c(=O)cc(N3CCOCC3)oc12 [AZD8186]; conditions: max 10 µM
Outline: as §1

Doxorubicin = compound: COc1cccc2c1C(=O)c1c(O)c3c(c(O)c1C2=O)C[C@@](O)(C(=O)CO)C[C@@H]3O[C@H]1C[C@H](N)[C@H](O)[C@H](C)O1 [Doxorubicin]; conditions: max 1 µM
Outline: as §1

Alisertib = compound: COc1cc(Nc2ncc3c(n2)-c2ccc(Cl)cc2C(c2c(F)cccc2OC)=NC3)ccc1C(=O)O [Alisertib]; conditions: max 10 µM
Outline: as §1

Venetoclax = compound: CC1(C)CCC(CN2CCN(c3ccc(C(=O)NS(=O)(=O)c4ccc(NCC5CCOCC5)c([N+](=O)[O-])c4)c(Oc4cnc5[nH]ccc5c4)c3)CC2)=C(c2ccc(Cl)cc2)C1 [Venetoclax]; conditions: max 1 µM
Outline: as §1

Selumetinib = compound: Cn1cnc2c(F)c(Nc3ccc(Br)cc3Cl)c(C(=O)NOCCO)cc21 [Selumetinib]; conditions: max 10 µM
Outline: as §1

AZD5363 = compound: C1CN(CCC1(C(=O)N[C@@H](CCO)C2=CC=C(C=C2)Cl)N)C3=NC=NC4=C3C=CN4 [AZD5363]; conditions: max 10 µM
Outline: as §1

SG3199 = compound: CC1=CN2[C@@H](C1)C=NC3=CC(=C(C=C3C2=O)OC)OCCCCCOC4=C(C=C5C(=C4)N=C[C@@H]6CC(=CN6C5=O)C)OC [SG3199]; conditions: max 0.001 µM
Outline: as §1

Olaparib = compound: O=C(c1cc(Cc2n[nH]c(=O)c3ccccc23)ccc1F)N1CCN(C(=O)C2CC2)CC1 [Olaparib]; conditions: max 10 µM
Outline: as §1

Crizotinib = compound: C[C@@H](Oc1cc(-c2cnn(C3CCNCC3)c2)cnc1N)c1c(Cl)ccc(F)c1Cl [Crizotinib]; conditions: max 10 µM
Outline: as §1

5-Fluorouracil = compound: O=c1[nH]cc(F)c(=O)[nH]1 [5-Fluorouracil]; conditions: max 20 µM
Outline: as §1

Taselisib = compound: Cc1nc(-c2cn3c(n2)-c2ccc(-c4cnn(C(C)(C)C(N)=O)c4)cc2OCC3)n(C(C)C)n1 [Taselisib]; conditions: max 10 µM
Outline: as §1

AZD5991 = compound: Cc1c2c(nn1C)CSCc1cc(n(C)n1)CSc1cc(c3ccccc3c1)OCCCc1c(C(=O)O)n(C)c3c-2c(Cl)ccc13 [AZD5991]; conditions: max 1 µM
Outline: as §1

AZD1390 = compound: CC(C)n1c(=O)n(C)c2cnc3cc(F)c(-c4ccc(OCCCN5CCCCC5)nc4)cc3c21 [AZD1390]; conditions: max 0.3 µM
Outline: as §1

AZD4320 = compound: CN(CC[C@H](CSC1=CC=CC=C1)NC2=C(C=C(C=C2)S(=O)(=O)NC(=O)C3=CC=C(C=C3)N4CCC(CC4)[C@H](C5=CC=CC=C5C6=CC=C(C=C6)Cl)O)S(=O)(=O)C(F)(F)F)CCO [AZD4320]; conditions: max 1 µM
Outline: as §1

AZD6738 = compound: C[C@@H]1COCCN1C2=NC(=NC(=C2)C3(CC3)[S@](=N)(=O)C)C4=C5C=CNC5=NC=C4 [AZD6738]; conditions: max 10 µM
Outline: as §1

MK-2206 = compound: NC1(c2ccc(-c3nc4ccn5c(=O)[nH]nc5c4cc3-c3ccccc3)cc2)CCC1 [MK-2206]; conditions: max 10 µM
Outline: as §1

Prexasertib = compound: COc1cccc(OCCCN)c1-c1cc(Nc2cnc(C#N)cn2)n[nH]1 [Prexasertib]; conditions: max 1 µM
Outline: as §1

AZD2811 = compound: CCN(CCO)CCCOc1ccc2c(Nc3cc(CC(=O)Nc4cccc(F)c4)[nH]n3)ncnc2c1 [AZD2811]; conditions: max 1 µM
Outline: as §1

Dasatinib = compound: CC1=C(C(=CC=C1)Cl)NC(=O)C2=CN=C(S2)NC3=CC(=NC(=N3)C)N4CCN(CC4)CCO [Dasatinib]; conditions: max 2 µM
Outline: as §1

AZD7648 = compound: Cc1cc2ncnn2cc1Nc1ncc2c(n1)n(C1CCOCC1)c(=O)n2C [AZD7648]; conditions: max 10 µM
Outline: as §1

Palbociclib = compound: CC(=O)c1c(C)c2cnc(Nc3ccc(N4CCNCC4)cn3)nc2n(C2CCCC2)c1=O [Palbociclib]; conditions: max 10 µM
Outline: as §1

Carboplatin = compound: C1CC(C1)(C(=O)[O-])C(=O)[O-].N.N.[Pt+2] [Carboplatin]; conditions: max 10 µM
Outline: as §1

Trametinib = compound: CC(=O)Nc1cccc(-n2c(=O)n(C3CC3)c(=O)c3c(Nc4ccc(I)cc4F)n(C)c(=O)c(C)c32)c1 [Trametinib]; conditions: max 1 µM
Outline: as §1

AZD5153 = compound: COc1nnc2ccc(N3CCC(c4ccc(OCCN5CCN(C)C(=O)[C@H]5C)cc4)CC3)nn12 [AZD5153]; conditions: max 1 µM
Outline: as §1

Gefitinib = compound: COc1cc2ncnc(Nc3ccc(F)c(Cl)c3)c2cc1OCCCN1CCOCC1 [Gefitinib]; conditions: max 10 µM
Outline: as §1

AZD1775 = compound: C=CCn1c(=O)c2cnc(Nc3ccc(N4CCN(C)CC4)cc3)nc2n1-c1cccc(C(C)(C)O)n1 [AZD1775]; conditions: max 3 µM
Outline: as §1

[1] = compound: O=C(Nc1ccc2[nH]nc(-c3ccncc3)c2c1)[C@@H]1CCN(CC(=O)N2CCN(c3ccc(-c4ncccn4)cc3)CC2)C1; conditions: max 5 µM
Outline: as §1

Savolitinib = compound: C[C@@H](c1ccc2nccn2c1)n1nnc2ncc(-c3cnn(C)c3)nc21 [Savolitinib]; conditions: max 1 µM
Outline: as §1

AZD0156 = compound: CN(C)CCCOc1ccc(-c2ccc3ncc4c(c3c2)n(C2CCOCC2)c(=O)n4C)cn1 [AZD0156]; conditions: max 3 µM
Outline: as §1

Cell Line | IC50, cell viability 72 h (Paclitaxel) [nM] | IC50, cell viability 72 h (SRA737) [nM] | IC50, cell viability 72 h (Gemcitabine) [nM] | IC50, cell viability 72 h (Lapatinib) [nM] | IC50, cell viability 72 h (SN-38) [nM] | IC50, cell viability 72 h (Etoposide) [nM] | IC50, cell viability 72 h (AZD8186) [nM] | IC50, cell viability 72 h (Doxorubicin) [nM] | IC50, cell viability 72 h (Alisertib) [nM] | IC50, cell viability 72 h (Venetoclax) [nM] | IC50, cell viability 72 h (Selumetinib) [nM] | IC50, cell viability 72 h (AZD5363) [nM] | IC50, cell viability 72 h (SG3199) [nM] | IC50, cell viability 72 h (Olaparib) [nM] | IC50, cell viability 72 h (Crizotinib) [nM] | IC50, cell viability 72 h (5-Fluorouracil) [nM] | IC50, cell viability 72 h (Taselisib) [nM] | IC50, cell viability 72 h (AZD5991) [nM] | IC50, cell viability 72 h (AZD1390) [nM] | IC50, cell viability 72 h (AZD4320) [nM] | IC50, cell viability 72 h (AZD6738) [nM] | IC50, cell viability 72 h (MK-2206) [nM] | IC50, cell viability 72 h (Prexasertib) [nM] | IC50, cell viability 72 h (AZD2811) [nM] | IC50, cell viability 72 h (Dasatinib) [nM] | IC50, cell viability 72 h (AZD7648) [nM] | IC50, cell viability 72 h (Palbociclib) [nM] | IC50, cell viability 72 h (Carboplatin) [nM] | IC50, cell viability 72 h (Trametinib) [nM] | IC50, cell viability 72 h (AZD5153) [nM] | IC50, cell viability 72 h (Gefitinib) [nM] | IC50, cell viability 72 h (AZD1775) [nM] | IC50, cell viability 72 h [1] [nM] | IC50, cell viability 72 h (Savolitinib) [nM] | IC50, cell viability 72 h (AZD0156) [nM]
ACHN (Kidney Carcinoma) | 461 | 1580 | 20.1 | 8520 | 12.7 | 5500 | > 10000 | 264 | 9510 | > 1000 | > 10000 | > 10000 | > 1 | > 10000 | > 10000 | > 20000 | 6330 | > 1000 | > 300 | > 1000 | 970 | > 10000 | 10.8 | > 1000 | 179 | > 10000 | 4940 | > 10000 | > 1000 | 623 | 3430 | 116 | > 5000 | > 1000 | > 3000
AMO-1 (Plasma Cell Myeloma) | < 3 | 2010 | 15.3 | 6710 | 18.4 | 1680 | > 10000 | 169 | 192 | > 1000 | > 10000 | 6030 | > 1 | > 10000 | 3000 | > 20000 | 3410 | 18.6 | > 300 | > 1000 | 3180 | 1150 | 8.82 | > 1000 | > 2000 | > 10000 | > 10000 | > 10000 | > 1000 | 36.6 | > 10000 | 633 | > 5000 | > 1000 | > 3000
BT-549 (Breast Carcinoma) | 25.3 | > 10000 | > 300 | > 10000 | 171 | 9220 | > 10000 | > 1000 | > 10000 | > 1000 | > 10000 | > 10000 | > 1 | > 10000 | > 10000 | > 20000 | > 10000 | > 1000 | > 300 | > 1000 | > 10000 | > 10000 | 592 | > 1000 | > 2000 | > 10000 | > 10000 | > 10000 | > 1000 | 531 | > 10000 | 2520 | > 5000 | > 1000 | > 3000
Ca9-22 (Head and Neck Carcinoma) | 7.45 | > 10000 | 73.2 | 2140 | 10.5 | > 10000 | > 10000 | 931 | 7140 | > 1000 | > 10000 | > 10000 | > 1 | > 10000 | 9400 | > 20000 | 1370 | > 1000 | > 300 | > 1000 | 2370 | > 10000 | 31.3 | > 1000 | 229 | > 10000 | > 10000 | > 10000 | 657 | 350 | 3840 | 714 | 4670 | > 1000 | > 3000
Caov-4 (Ovarian Carcinoma) | 545 | 4020 | 78.5 | > 10000 | 11.6 | 6040 | > 10000 | 253 | > 10000 | > 1000 | > 10000 | > 10000 | > 1 | > 10000 | > 10000 | > 20000 | > 10000 | 993 | > 300 | > 1000 | 3190 | 9350 | 12.6 | > 1000 | > 2000 | > 10000 | > 10000 | > 10000 | 108 | 719 | > 10000 | 816 | 3330 | > 1000 | > 3000
